Assay results as given in ChEMBL document CHEMBL4229381, “New cytokinin derivatives possess UVA and UVB photoprotective effect on human skin cells and prevent oxidative stress” (Eur J Med Chem, 2018).
Active and inactive are the calls of the source. No cut-off for these calls is given here.

Tests used:
HaCaT [1] = assay: Cytoprotection against phototoxicity in human HaCaT cells assessed as increase in cell viability at 3.9 uM preincubated for 60 mins followed by 10 J/cm2 UVA irradiation and measured after 24 hrs by neutral red uptake assay; assay type: functional, cell-based
HaCaT [2] = assay: Cytotoxicity in human HaCaT cells assessed as reduction in cell viability at 50 uM after 24 hrs by resazurin dye-based fluorescence assay relative to control
[3] = Cytotoxicity in human NHDF cells assessed as cell viability at 31.3 uM after 24 hrs by neutral red uptake assay relative to control; assay type: cell-based; settings: read-out: Activity
[4] = Stability of the compound in pH 4 solution at 10^-4 M after 24 hrs by HPLC analysis; assay type: physicochemical; settings: read-out: Stability
[5] = Stability of the compound in pH 6 solution at 10^-4 M after 24 hrs by HPLC analysis; assay type: physicochemical; settings: read-out: Stability
[6] = Stability of the compound in pH 3 solution at 10^-4 M after 1 hr by HPLC analysis; assay type: physicochemical; settings: read-out: Stability
Amaranthus caudatus = assay: Growth promoting activity in Amaranthus caudatus var. atropurpurea seeds by measuring betacyanin at 10^-4 mol/L after 48 hrs relative to control; assay type: functional
[7] = Stability of the compound in pH 5 solution at 10^-4 M after 24 hrs by HPLC analysis; assay type: physicochemical; settings: read-out: Stability
[8] = Stability of the compound in pH 3 solution at 10^-4 M after 24 hrs by HPLC analysis; assay type: physicochemical; settings: read-out: Stability
HaCaT [9] = assay: Potency index, ratio of compound effect to rosmarinic acid effect for cytoprotection against phototoxicity in human HaCaT cells assessed as increase in cell viability at 3.9 uM preincubated for 60 mins followed by 150 mJ/cm2 UVB irradiation and measured after 24 hrs by neutral red uptake assay; assay type: functional
[10] = Cytotoxicity in human NHDF cells assessed as cell viability at 15.6 uM after 24 hrs by neutral red uptake assay relative to control; assay type: cell-based; settings: read-out: Activity
[11] = Cytotoxicity in human NHDF cells assessed as cell viability at 7.8 uM after 24 hrs by neutral red uptake assay relative to control; assay type: cell-based; settings: read-out: Activity
NHDF [12] = assay: Cytoprotection against phototoxicity in human NHDF cells assessed as increase in cell viability at 3.9 uM preincubated for 60 mins followed by 7.5 J/cm2 UVA irradiation and measured after 24 hrs by neutral red uptake assay; assay type: functional, cell-based
NHDF [13] = assay: Cytoprotection against phototoxicity in human NHDF cells assessed as increase in cell viability at 3.9 to 31.3 uM preincubated for 60 mins followed by 150 mJ/cm2 UVB irradiation and measured after 24 hrs by neutral red uptake assay; assay type: functional, cell-based
[14] = Phototoxicity in human NHDF cells assessed as cell viability at 125 uM preincubated for 60 mins followed by 5 J/cm2 UVA irradiation and measured after 24 hrs by neutral red uptake assay relative to control; assay type: cell-based; settings: read-out: Activity
[15] = Phototoxicity in human HaCaT cells assessed as cell viability at 3.9 uM preincubated for 60 mins followed by 7.5 J/cm2 UVA irradiation and measured after 24 hrs by neutral red uptake assay relative to control; assay type: cell-based; settings: read-out: Activity
[16] = Cytotoxicity in human NHDF cells assessed as cell viability at 62.5 uM after 24 hrs by neutral red uptake assay relative to control; assay type: cell-based; settings: read-out: Activity
[17] = Cytotoxicity in human HaCaT cells assessed as cell viability at 125 uM after 24 hrs by neutral red uptake assay relative to control; assay type: cell-based; settings: read-out: Activity
[18] = Phototoxicity in human HaCaT cells assessed as cell viability at 7.8 uM preincubated for 60 mins followed by 7.5 J/cm2 UVA irradiation and measured after 24 hrs by neutral red uptake assay relative to control; assay type: cell-based; settings: read-out: Activity
[19] = Phototoxicity in human HaCaT cells assessed as cell viability at 125 uM preincubated for 60 mins followed by 7.5 J/cm2 UVA irradiation and measured after 24 hrs by neutral red uptake assay relative to control; assay type: cell-based; settings: read-out: Activity
NHDF [20] = assay: Potency index, ratio of compound effect to rosmarinic acid effect for cytoprotection against phototoxicity in human NHDF cells assessed as increase in cell viability at 3.9 uM preincubated for 60 mins followed by 7.5 J/cm2 UVA irradiation and measured after 24 hrs by neutral red uptake assay; assay type: functional
Caenorhabditis elegans [21] = assay: Protection against juglone-induced oxidative stress in Caenorhabditis elegans BA17 (fem-1) at 100 uM preincubated for 3 days followed by juglone addition measured every hour for 12 ro 14 hrs by inverted microscopic analysis; assay type: functional, organism-based
[22] = Cytotoxicity in human HaCaT cells assessed as cell viability at 15.6 uM after 24 hrs by neutral red uptake assay relative to control; assay type: cell-based; settings: read-out: Activity
[23] = Stability of the compound in pH 5 solution at 10^-4 M after 1 hr by HPLC analysis; assay type: physicochemical; settings: read-out: Stability
NHDF [24] = assay: Cytoprotection against phototoxicity in human NHDF cells assessed as increase in cell viability at 31.3 uM preincubated for 60 mins followed by 150 mJ/cm2 UVB irradiation and measured after 24 hrs by neutral red uptake assay; assay type: functional, cell-based
[25] = Stability of the compound in pH 4 solution at 10^-4 M after 1 hr by HPLC analysis; assay type: physicochemical; settings: read-out: Stability
NHDF [26] = assay: Cytoprotection against phototoxicity in human NHDF cells assessed as increase in cell viability at 3.9 to 31.3 uM preincubated for 60 mins followed by 7.5 J/cm2 UVA irradiation and measured after 24 hrs by neutral red uptake assay; assay type: functional, cell-based
[27] = Phototoxicity in human HaCaT cells assessed as cell viability at 15.6 uM preincubated for 60 mins followed by 7.5 J/cm2 UVA irradiation and measured after 24 hrs by neutral red uptake assay relative to control; assay type: cell-based; settings: read-out: Activity
Caenorhabditis elegans [28] = assay: Protection against juglone-induced oxidative stress in wild type Caenorhabditis elegans N2 at 100 uM preincubated for 3 days followed by juglone addition and measured after 4 hrs by inverted microscopic analysis; assay type: functional, organism-based
[29] = Cytotoxicity in human NHDF cells assessed as cell viability at 125 uM after 24 hrs by neutral red uptake assay relative to control; assay type: cell-based; settings: read-out: Activity
[30] = Cytotoxicity in human HaCaT cells assessed as cell viability at 7.8 uM after 24 hrs by neutral red uptake assay relative to control; assay type: cell-based; settings: read-out: Activity
[31] = Cytotoxicity in human HaCaT cells assessed as cell viability at 3.9 uM after 24 hrs by neutral red uptake assay relative to control; assay type: cell-based; settings: read-out: Activity
[32] = Stability of the compound in pH 6 solution at 10^-4 M after 1 hr by HPLC analysis; assay type: physicochemical; settings: read-out: Stability
[33] = Phototoxicity in human NHDF cells assessed as cell viability at 3.9 uM preincubated for 60 mins followed by 5 J/cm2 UVA irradiation and measured after 24 hrs by neutral red uptake assay relative to control; assay type: cell-based; settings: read-out: Activity
[34] = Phototoxicity in human HaCaT cells assessed as cell viability at 62.5 uM preincubated for 60 mins followed by 7.5 J/cm2 UVA irradiation and measured after 24 hrs by neutral red uptake assay relative to control; assay type: cell-based; settings: read-out: Activity
[35] = Cytotoxicity in human NHDF cells assessed as cell viability at 3.9 uM after 24 hrs by neutral red uptake assay relative to control; assay type: cell-based; settings: read-out: Activity
Triticum aestivum = assay: Anti-senescent activity in leaf of Triticum aestivum cv. Hereward seedlings by measuring chlorophyll retention at 10^-4 mol/L after 4 days relative to control; assay type: functional
Nicotiana tabacum = assay: Growth promoting activity in tobacco callus assessed as callus weight at 10^-5 mol/L after 4 weeks relative to control; assay type: functional

remaining at 24 h, 100 µM [4]: 52.1%
remaining at 24 h, 100 µM [5]: 100%
remaining at 1 h, 100 µM [6]: 94.6%
remaining at 24 h, 100 µM [7]: 94.2%
remaining at 24 h, 100 µM [8]: 0.8%
remaining at 1 h, 100 µM [23]: 100%
remaining at 1 h, 100 µM [25]: 99.4%
remaining at 1 h, 100 µM [32]: 100%
SMILES: c1csc(CNc2ncnc3c2ncn3C2CCCO2)c1 (stereo not drawn)
Activity (HaCaT [1]): Active
Activity (HaCaT [2]): < 10%
viability at 24 h, 31.3 µM [3]: 107%
Activity (Amaranthus caudatus): 81%
Ratio (HaCaT [9]): >2
viability at 24 h, 15.6 µM [10]: 100%
viability at 24 h, 7.8 µM [11]: 103%
Activity (NHDF [12]): Active
Activity (NHDF [13]): Active
viability at 24 h, 125 µM [14]: 106%
viability at 24 h, 3.9 µM [15]: 123%
viability at 24 h, 62.5 µM [16]: 108%
viability at 24 h, 125 µM [17]: 103%
viability at 24 h, 7.8 µM [18]: 124%
viability at 24 h, 125 µM [19]: 127%
Ratio (NHDF [20]): >6
Activity (Caenorhabditis elegans [21]): Active
viability at 24 h, 15.6 µM [22]: 100%
Activity (NHDF [24]): Active
Activity (NHDF [26]): Active
viability at 24 h, 15.6 µM [27]: 121%
Activity (Caenorhabditis elegans [28]): Active
viability at 24 h, 125 µM [29]: 108%
viability at 24 h, 7.8 µM [30]: 101%
viability at 24 h, 3.9 µM [31]: 101%
viability at 24 h, 3.9 µM [33]: 98%
viability at 24 h, 62.5 µM [34]: 130%
viability at 24 h, 3.9 µM [35]: 100%
Activity (Triticum aestivum): 102%
Activity (Nicotiana tabacum): 105%
